How the values were obtained:
B2 bradykinin receptor = target: T1, B2 bradykinin receptor (Homo sapiens, UniProt P30411); assay type: cell membranes, Membrane; settings: chem-1; further: in other assays of this panel Not Active means under 50% inhibition at 10 µM
T1 sequence (P30411 whole entry): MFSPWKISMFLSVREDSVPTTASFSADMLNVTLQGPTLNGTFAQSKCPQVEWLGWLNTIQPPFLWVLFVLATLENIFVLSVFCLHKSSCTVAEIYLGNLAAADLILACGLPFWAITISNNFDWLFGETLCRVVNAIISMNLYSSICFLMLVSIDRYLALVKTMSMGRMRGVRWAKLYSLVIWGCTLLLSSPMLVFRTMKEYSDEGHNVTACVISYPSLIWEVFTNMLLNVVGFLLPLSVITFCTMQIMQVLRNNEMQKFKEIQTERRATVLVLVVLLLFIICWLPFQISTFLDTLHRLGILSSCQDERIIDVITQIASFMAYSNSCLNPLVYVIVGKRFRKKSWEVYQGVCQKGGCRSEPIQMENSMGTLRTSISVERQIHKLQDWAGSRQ

[1] = DRUGMATRIX: Sigma2 radioligand binding (ligand: [3H] Ifenprodil); assay type: cell membranes, Rattus norvegicus, Wistar, Brain, Membrane; settings: Not Active = under 50% inhibition at 10 µM
Carbonic anhydrase 2 = Carbonic anhydrase 2 (Homo sapiens, UniProt P00918); experiment: DRUGMATRIX: Carbonic Anhydrase II enzyme inhibition (substrate: 4-Nitrophenyl acetate (4-NPA)); assay type: tissue-based, Erythrocyte; settings: erythrocyte; Not Active = under 50% inhibition at 10 µM
[2] = target: Prostaglandin G/H synthase 1 (Homo sapiens, UniProt P23219); experiment: biochemical; assay type: tissue-based, Platelet; settings: platelet;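 further: inhibition of COX-1 enzyme activity, with arachidonic acid supplied as substrate; in other assays of this panel Not Active means under 50% inhibition at 10 µM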
[3] = target: T2, 3-hydroxy-3-methylglutaryl-coenzyme A reductase (Homo sapiens, UniProt P04035); set-up: species or system Escherichia coli;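 further: enzyme inhibition assay of HMG-CoA reductase using radiolabeled [14C]HMG-CoA as substrate; in other assays of this panel Not Active means under 50% inhibition at 10 µM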
T2 sequence (P04035 whole entry): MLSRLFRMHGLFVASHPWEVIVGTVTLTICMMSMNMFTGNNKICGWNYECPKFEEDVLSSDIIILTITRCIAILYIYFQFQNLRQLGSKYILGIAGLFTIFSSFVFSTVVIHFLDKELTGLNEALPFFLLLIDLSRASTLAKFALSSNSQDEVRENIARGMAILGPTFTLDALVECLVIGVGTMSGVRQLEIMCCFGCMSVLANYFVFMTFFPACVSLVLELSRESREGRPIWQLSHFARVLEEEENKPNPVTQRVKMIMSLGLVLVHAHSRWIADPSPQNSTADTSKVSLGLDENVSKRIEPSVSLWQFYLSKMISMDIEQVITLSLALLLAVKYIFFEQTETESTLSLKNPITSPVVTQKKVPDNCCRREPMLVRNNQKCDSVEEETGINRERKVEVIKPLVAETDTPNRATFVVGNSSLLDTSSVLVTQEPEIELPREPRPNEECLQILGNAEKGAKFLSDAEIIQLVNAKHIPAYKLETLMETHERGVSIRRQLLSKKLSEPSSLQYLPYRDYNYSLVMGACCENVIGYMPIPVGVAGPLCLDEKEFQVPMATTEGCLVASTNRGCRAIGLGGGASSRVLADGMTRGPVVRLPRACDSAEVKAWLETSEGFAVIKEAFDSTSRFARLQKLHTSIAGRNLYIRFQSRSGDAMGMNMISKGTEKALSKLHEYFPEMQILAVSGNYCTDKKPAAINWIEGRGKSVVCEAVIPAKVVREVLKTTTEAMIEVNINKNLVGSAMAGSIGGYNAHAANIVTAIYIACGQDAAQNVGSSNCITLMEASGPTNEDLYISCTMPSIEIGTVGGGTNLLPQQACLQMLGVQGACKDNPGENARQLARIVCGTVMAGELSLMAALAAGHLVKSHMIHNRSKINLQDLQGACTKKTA

Melanocortin receptor 4 = Melanocortin receptor 4 (Homo sapiens, UniProt P32245); assay type: cell membranes, Membrane; settings: hek293; further: in other assays of this panel Not Active means under 50% inhibition at 10 µM
[4] = target: T3, Muscarinic acetylcholine receptor M4 (Homo sapiens, UniProt P08173); assay type: cell membranes, CHO-K1, Membrane; settings: cho-k1; further: in other assays of this panel Not Active means under 50% inhibition at 10 µM
T3 sequence (P08173 whole entry): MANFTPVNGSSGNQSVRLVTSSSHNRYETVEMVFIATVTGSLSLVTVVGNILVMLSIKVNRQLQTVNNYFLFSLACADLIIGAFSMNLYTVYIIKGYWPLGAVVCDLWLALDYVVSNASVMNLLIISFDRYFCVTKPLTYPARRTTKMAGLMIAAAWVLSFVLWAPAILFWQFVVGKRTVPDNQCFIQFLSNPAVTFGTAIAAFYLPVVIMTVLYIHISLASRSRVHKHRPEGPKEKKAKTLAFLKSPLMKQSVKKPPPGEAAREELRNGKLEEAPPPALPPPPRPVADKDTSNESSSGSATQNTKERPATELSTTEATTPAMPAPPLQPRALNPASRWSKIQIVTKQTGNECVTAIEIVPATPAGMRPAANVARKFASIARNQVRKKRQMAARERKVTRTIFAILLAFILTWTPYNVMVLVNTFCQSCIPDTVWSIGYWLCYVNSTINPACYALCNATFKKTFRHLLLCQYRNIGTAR

[5] = target: Kappa-type opioid receptor (Homo sapiens, UniProt P41145); experiment: DRUGMATRIX: Opiate kappa (OP2, KOP) radioligand binding (ligand: [3H] Diprenorphine); assay type: cell membranes, HEK293, Membrane; settings: hek293; Not Active = under 50% inhibition at 10 µM
[6] = DRUGMATRIX: Potassium Channel [KATP] radioligand binding (ligand: [3H] Glyburide); assay type: cell membranes, Membrane; settings: hit-t15; Not Active = under 50% inhibition at 10 µM
Caspase-1 = target: T4, Caspase-1 (Homo sapiens, UniProt P29466); set-up: species or system Escherichia coli
T4 sequence (P29466 whole entry): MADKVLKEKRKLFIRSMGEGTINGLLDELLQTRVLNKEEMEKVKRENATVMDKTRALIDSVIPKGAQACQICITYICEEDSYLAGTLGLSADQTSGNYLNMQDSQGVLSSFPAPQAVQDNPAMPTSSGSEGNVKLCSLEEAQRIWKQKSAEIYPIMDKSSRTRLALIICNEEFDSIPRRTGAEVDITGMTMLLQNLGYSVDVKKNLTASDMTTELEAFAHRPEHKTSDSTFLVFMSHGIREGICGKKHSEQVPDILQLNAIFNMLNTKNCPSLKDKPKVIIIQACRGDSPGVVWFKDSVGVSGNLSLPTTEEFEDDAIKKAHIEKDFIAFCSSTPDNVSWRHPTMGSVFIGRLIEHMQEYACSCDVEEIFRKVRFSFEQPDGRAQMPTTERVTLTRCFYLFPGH

[7] = target: Matrix metalloproteinase-9 (Homo sapiens, UniProt P14780); assay type: cell-based
[8] = target: Mitogen-activated protein kinase 1 (Homo sapiens, UniProt P28482); experiment: DRUGMATRIX: Protein Serine/Threonine Kinase, ERK2 enzyme inhibition (substrate: Myelin Basic Protein); set-up: species or system Escherichia coli; settings: Not Active = under 50% inhibition at 10 µM
Acetylcholinesterase = Acetylcholinesterase (Homo sapiens, UniProt P22303); experiment: DRUGMATRIX: Acetylcholinesterase enzyme inhibition (substrate: acetylthiocholine); assay type: cell-based, HEK293; settings: hek293; Not Active = under 50% inhibition at 10 µM
Sequence of Acetylcholinesterase (P22303 whole entry): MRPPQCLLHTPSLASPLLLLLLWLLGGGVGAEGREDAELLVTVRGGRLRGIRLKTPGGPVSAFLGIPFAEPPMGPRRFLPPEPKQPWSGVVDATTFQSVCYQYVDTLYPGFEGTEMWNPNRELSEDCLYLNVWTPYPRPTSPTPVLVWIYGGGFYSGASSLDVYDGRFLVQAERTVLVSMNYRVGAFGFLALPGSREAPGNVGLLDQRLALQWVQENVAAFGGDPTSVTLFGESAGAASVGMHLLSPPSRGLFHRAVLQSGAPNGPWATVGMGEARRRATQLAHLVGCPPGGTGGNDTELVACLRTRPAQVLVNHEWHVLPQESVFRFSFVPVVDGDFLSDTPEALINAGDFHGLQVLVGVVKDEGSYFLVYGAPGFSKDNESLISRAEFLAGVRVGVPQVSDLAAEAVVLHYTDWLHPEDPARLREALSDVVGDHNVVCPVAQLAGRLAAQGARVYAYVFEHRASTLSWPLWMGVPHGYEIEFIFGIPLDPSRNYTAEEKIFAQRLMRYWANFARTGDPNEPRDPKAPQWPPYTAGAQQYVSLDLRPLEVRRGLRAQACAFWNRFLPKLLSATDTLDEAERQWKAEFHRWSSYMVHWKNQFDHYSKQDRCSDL

Sequence of Melanocortin receptor 4 (P32245 whole entry): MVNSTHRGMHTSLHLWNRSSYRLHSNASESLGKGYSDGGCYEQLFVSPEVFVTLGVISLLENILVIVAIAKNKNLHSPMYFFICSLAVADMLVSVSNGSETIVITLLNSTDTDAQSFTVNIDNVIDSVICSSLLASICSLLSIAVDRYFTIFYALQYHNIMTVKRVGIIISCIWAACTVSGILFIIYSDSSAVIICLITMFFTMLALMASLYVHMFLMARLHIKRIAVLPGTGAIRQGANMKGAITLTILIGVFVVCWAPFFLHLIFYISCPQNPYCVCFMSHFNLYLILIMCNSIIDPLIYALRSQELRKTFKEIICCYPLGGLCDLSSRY
Sequence of Prostaglandin G/H synthase 1 (P23219 whole entry): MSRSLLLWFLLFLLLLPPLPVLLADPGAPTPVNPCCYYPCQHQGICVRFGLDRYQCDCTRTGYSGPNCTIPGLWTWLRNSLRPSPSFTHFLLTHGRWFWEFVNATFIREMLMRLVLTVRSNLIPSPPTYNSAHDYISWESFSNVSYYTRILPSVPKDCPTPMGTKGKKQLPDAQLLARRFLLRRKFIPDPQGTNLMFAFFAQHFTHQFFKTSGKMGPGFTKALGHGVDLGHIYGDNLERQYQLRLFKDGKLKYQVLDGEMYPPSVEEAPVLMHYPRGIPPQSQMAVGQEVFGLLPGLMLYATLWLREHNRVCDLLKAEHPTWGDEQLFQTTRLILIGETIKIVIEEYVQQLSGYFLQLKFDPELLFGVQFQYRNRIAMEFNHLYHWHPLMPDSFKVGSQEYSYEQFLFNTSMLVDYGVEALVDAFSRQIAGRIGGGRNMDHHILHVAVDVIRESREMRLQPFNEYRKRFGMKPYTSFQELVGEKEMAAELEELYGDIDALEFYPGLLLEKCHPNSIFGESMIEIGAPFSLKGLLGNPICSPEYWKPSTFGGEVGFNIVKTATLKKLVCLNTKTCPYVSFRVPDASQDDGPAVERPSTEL
Sequence of Matrix metalloproteinase-9 (P14780 whole entry): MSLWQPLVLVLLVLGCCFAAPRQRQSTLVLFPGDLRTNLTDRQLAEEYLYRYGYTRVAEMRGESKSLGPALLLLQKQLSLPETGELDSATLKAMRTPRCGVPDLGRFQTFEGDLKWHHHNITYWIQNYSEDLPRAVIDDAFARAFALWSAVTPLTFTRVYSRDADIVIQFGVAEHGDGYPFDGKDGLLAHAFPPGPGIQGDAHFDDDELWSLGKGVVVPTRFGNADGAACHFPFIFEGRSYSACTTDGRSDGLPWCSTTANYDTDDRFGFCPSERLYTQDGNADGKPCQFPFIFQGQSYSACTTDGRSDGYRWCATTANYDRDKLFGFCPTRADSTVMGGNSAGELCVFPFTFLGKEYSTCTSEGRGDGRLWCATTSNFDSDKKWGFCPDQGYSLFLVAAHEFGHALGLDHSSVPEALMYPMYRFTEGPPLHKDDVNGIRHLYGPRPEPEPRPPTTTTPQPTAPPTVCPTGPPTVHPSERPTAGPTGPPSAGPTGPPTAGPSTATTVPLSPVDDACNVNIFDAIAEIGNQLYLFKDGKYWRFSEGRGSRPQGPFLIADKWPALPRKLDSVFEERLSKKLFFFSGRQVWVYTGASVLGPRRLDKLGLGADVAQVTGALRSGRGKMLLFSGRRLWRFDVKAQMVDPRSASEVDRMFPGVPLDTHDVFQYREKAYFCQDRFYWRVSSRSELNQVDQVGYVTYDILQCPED
Sequence of Mitogen-activated protein kinase 1 (P28482 whole entry): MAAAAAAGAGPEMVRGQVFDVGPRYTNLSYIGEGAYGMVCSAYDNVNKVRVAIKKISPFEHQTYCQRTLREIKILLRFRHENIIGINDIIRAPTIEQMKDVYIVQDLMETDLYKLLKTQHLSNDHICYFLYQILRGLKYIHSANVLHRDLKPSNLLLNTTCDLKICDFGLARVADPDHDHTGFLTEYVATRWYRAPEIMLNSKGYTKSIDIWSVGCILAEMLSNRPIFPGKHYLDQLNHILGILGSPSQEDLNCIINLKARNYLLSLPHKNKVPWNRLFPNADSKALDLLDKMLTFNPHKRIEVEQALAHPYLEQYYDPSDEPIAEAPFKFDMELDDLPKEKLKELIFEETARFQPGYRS
Sequence of Kappa-type opioid receptor (P41145 whole entry): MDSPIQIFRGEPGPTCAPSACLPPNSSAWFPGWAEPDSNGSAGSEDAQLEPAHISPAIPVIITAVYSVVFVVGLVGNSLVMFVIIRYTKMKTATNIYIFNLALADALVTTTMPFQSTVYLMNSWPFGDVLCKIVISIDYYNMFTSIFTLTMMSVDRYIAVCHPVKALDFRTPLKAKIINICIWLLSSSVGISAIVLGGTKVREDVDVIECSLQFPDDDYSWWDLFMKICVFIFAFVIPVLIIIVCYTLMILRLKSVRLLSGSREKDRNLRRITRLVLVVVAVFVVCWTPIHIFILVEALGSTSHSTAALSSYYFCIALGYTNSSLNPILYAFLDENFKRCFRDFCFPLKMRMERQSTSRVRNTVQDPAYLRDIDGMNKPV

CN1[C@@H]2CC[C@H]1C[C@@H](OC(=O)c1c[nH]c3ccccc13)C2 [TROPISETRON]
Not Active: IC50 (B2 bradykinin receptor) | IC50 [1] | Ki [1] | IC50 (Carbonic anhydrase 2) | IC50 [2] | IC50 [3] | IC50 (Melanocortin receptor 4) | IC50 [4] | IC50 [5] | IC50 [6] | Ki [6] | IC50 (Caspase-1) | IC50 [7] | IC50 [8] | IC50 (Acetylcholinesterase)

COc1cc(C(=O)NC2CCCNC2)cc(OC)c1OC (stereo not given) [TROXIPIDE]
Not Active: IC50 (B2 bradykinin receptor) | IC50 [1] | Ki [1] | IC50 (Carbonic anhydrase 2) | IC50 [2] | IC50 [3] | IC50 (Melanocortin receptor 4) | IC50 [4] | IC50 [5] | IC50 [6] | Ki [6] | IC50 (Caspase-1) | IC50 [7] | IC50 [8] | IC50 (Acetylcholinesterase)

CC(C)[C@H](N)C(=O)OCCOCn1cnc2c(=O)nc(N)[nH]c21 [VALACYCLOVIR]
Not Active: IC50 (B2 bradykinin receptor) | IC50 [1] | Ki [1] | IC50 (Carbonic anhydrase 2) | IC50 [2] | IC50 [3] | IC50 (Melanocortin receptor 4) | IC50 [4] | IC50 [5] | IC50 [6] | Ki [6] | IC50 (Caspase-1) | IC50 [7] | IC50 [8] | IC50 (Acetylcholinesterase)

CN[C@H](CC(C)C)C(=O)N[C@H]1C(=O)N[C@@H](CC(N)=O)C(=O)N[C@H]2C(=O)N[C@H]3C(=O)N[C@H](C(=O)N[C@H](C(=O)O)c4cc(O)cc(O)c4-c4cc3ccc4O)[C@H](O)c3ccc(c(Cl)c3)Oc3cc2cc(c3O[C@@H]2O[C@H](CO)[C@@H](O)[C@H](O)[C@H]2O[C@H]2C[C@](C)(N)[C@H](O)[C@H](C)O2)Oc2ccc(cc2Cl)[C@H]1O [VANCOMYCIN]
Not Active: IC50 (B2 bradykinin receptor) | IC50 [1] | Ki [1] | IC50 (Carbonic anhydrase 2) | IC50 [2] | IC50 [3] | IC50 (Melanocortin receptor 4) | IC50 [4] | IC50 [5] | IC50 [6] | Ki [6] | IC50 (Caspase-1) | IC50 [7] | IC50 [8] | IC50 (Acetylcholinesterase)

COC(=O)[C@@H]1[C@H]2C[C@H]3c4[nH]c5ccccc5c4CCN3C[C@@H]2CC[C@@H]1O [YOHIMBINE]
Not Active: IC50 (B2 bradykinin receptor) | IC50 [1] | Ki [1] | IC50 (Carbonic anhydrase 2) | IC50 [2] | IC50 [3] | IC50 (Melanocortin receptor 4) | IC50 [4] | IC50 [5] | IC50 [6] | Ki [6] | IC50 (Caspase-1) | IC50 [7] | IC50 [8] | IC50 (Acetylcholinesterase)

Reference: ChEMBL document CHEMBL1909046, “DrugMatrix in vitro pharmacology data”
